Reference: patent US20230322761A1, “DEGRADATION OF BRUTON'S TYROSINE KINASE (BTK) BY CONJUGATION OF BTK INHIBITORS WITH E3 LIGASE LIGAND AND METHODS OF USE” (BEIGENE, LTD., priority 2020, published 2023)

target: T1, BTK (Homo sapiens, UniProt Q06187); test: BTK degradation in TMD-8 cells, HTRF assay after 6 h treatment; assay type: cell-based; details: IC50 (DC50) of BTK degradation
T1 construct: endogenous in cells; host or cells: TMD-8 cells
Procedure, shortened: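 Remaining BTK was quantified by HTRF in lysates of TMD-8 cells after 6 h exposure to an 8-point, 6-fold compound series (500× stocks in DMSO starting at 1 mM; 0.2% DMSO). Lysis 30 min, antibodies overnight at room temperature, ratio read at 665/620 nm; DC50 fitted with a four-parameter logistic equation.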

T1 sequence (Q06187 whole entry): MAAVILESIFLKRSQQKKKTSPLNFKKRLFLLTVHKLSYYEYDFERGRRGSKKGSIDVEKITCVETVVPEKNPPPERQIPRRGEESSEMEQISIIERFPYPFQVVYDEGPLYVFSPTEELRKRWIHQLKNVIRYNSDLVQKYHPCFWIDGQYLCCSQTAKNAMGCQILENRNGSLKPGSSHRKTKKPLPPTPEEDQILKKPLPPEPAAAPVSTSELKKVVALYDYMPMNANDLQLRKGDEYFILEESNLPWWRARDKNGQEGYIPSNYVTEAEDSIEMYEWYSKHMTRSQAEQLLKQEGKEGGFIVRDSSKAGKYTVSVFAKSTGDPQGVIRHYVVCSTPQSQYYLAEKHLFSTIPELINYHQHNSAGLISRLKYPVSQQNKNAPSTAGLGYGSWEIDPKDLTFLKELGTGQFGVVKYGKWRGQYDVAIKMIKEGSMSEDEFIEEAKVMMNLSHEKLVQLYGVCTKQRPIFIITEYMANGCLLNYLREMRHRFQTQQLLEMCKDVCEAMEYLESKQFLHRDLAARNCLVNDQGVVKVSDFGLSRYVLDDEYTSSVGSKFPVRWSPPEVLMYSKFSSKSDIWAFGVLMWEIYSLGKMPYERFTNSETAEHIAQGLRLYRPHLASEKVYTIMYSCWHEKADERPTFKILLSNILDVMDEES

| SMILES | DC50 [nM] |
| --- | --- |
| Cc1cc(CCN2CCC(c3ccc(-c4cnc5[nH]nc(-c6ccc([C@@H](C)NC(=O)c7noc(C(C)(C)C)n7)c(C)c6)c5c4)nc3)CC2)ncc1C1CCC(=O)NC1=O (stereo partly drawn) [Example 145, 5-(tert-butyl)-N-((1R)-1-(4-(5-(5-(1-(2-(5-(2,6-dioxopiperidin-3-yl)-4-methylpyridin-2-yl)ethyl)piperidin-4-yl)pyridin-2-yl)-1H-pyrazolo[3,4-b]pyridin-3-yl)-2-methylphenyl)ethyl)-1,2,4-oxadiazole-3-carboxamide] | 1.22 |
| Cc1cc(-c2n[nH]c3ncc(-c4ccc(N5CCN(CCc6ccc(C7CCC(=O)NC7=O)cc6)CC5)cn4)cc23)ccc1[C@@H](C)NC(=O)c1noc(C(C)(C)C)n1 (stereo partly drawn) [Example 116, 5-(tert-butyl)-N-((1R)-1-(4-(5-(5-(4-(4-(2,6-dioxopiperidin-3-yl)phenethyl)piperazin-1-yl)pyridin-2-yl)-1H-pyrazolo[3,4-b]pyridin-3-yl)-2-methylphenyl)ethyl)-1,2,4-oxadiazole-3-carboxamide] | 1.05 |
| Cc1cc(-c2n[nH]c3ncc(-c4ccc(N5CC6(CN(CC7CCN(c8ccc(N9CCC(=O)NC9=O)cc8)CC7)C6)C5)cc4)cc23)ccc1[C@@H](C)NC(=O)c1nc(C(C)(C)C)no1 [Example 212, (R)-3-(tert-butyl)-N-(1-(4-(5-(4-(6-((1-(4-(2,4-dioxotetrahydropyrimidin-1(2H)-yl)phenyl)piperidin-4-yl)methyl)-2,6-diazaspiro[3.3]heptan-2-yl)phenyl)-1H-pyrazolo[3,4-b]pyridin-3-yl)-2-methylphenyl)ethyl)-1,2,4-oxadiazole-5-carboxamide] | 1.95 |
| Cc1cc(-c2n[nH]c3ncc(-c4ccc(C5CCN(CCc6ccc(C7CCC(=O)NC7=O)cc6)CC5)nc4)cc23)ccc1[C@@H](C)NC(=O)c1noc(C(C)(C)C)n1 (stereo partly drawn) [Example 117, 5-(tert-butyl)-N-((1R)-1-(4-(5-(6-(1-(4-(2,6-dioxopiperidin-3-yl)phenethyl)piperidin-4-yl)pyridin-3-yl)-1H-pyrazolo[3,4-b]pyridin-3-yl)-2-methylphenyl)ethyl)-1,2,4-oxadiazole-3-carboxamide] | 3.5 |
| Cc1cc(-c2n[nH]c3ncc(-c4ccc(N5CCN(CC6CCN(c7ccc(N8CCC(=O)NC8=O)cc7)CC6)CC5)cc4)cc23)ccc1[C@@H](C)NC(=O)c1nc(C(C)(C)C)no1 [Example 21, (R)-3-(tert-butyl)-N-(1-(4-(5-(4-(4-((1-(4-(2,4-dioxotetrahydropyrimidin-1(2H)-yl)phenyl)piperidin-4-yl)methyl)piperazin-1-yl)phenyl)-1H-pyrazolo[3,4-b]pyridin-3-yl)-2-methylphenyl)ethyl)-1,2,4-oxadiazole-5-carboxamide] | 8.62 |
| COc1cc(-c2cnc3[nH]nc(-c4ccc([C@@H](C)NC(=O)c5noc(C(C)(C)C)n5)c(C)c4)c3c2)ccc1N1CCN(CC2CCN(c3ccc(N4CCC(=O)NC4=O)cc3)CC2)CC1 [Example 120, (R)-5-(tert-butyl)-N-(1-(4-(5-(4-(4-((1-(4-(2,4-dioxotetrahydropyrimidin-1(2H)-yl)phenyl)piperidin-4-yl)methyl)piperazin-1-yl)-3-methoxyphenyl)-1H-pyrazolo[3,4-b]pyridin-3-yl)-2-methylphenyl)ethyl)-1,2,4-oxadiazole-3-carboxamide] | 5.82 |
| COc1nc(CCN2CCN(c3ccc(-c4cnc5[nH]nc(-c6ccc([C@@H](C)NC(=O)c7nc(C(C)(C)C)no7)c(C)c6)c5c4)cc3)CC2)ccc1C1CCC(=O)NC1=O (stereo partly drawn) [Example 195, 3-(tert-butyl)-N-((1R)-1-(4-(5-(4-(4-(2-(5-(2,6-dioxopiperidin-3-yl)-6-methoxypyridin-2-yl)ethyl)piperazin-1-yl)phenyl)-1H-pyrazolo[3,4-b]pyridin-3-yl)-2-methylphenyl)ethyl)-1,2,4-oxadiazole-5-carboxamide] | 6.13 |
| CC(C)(C)c1noc(C(=O)NCc2ccc(-c3n[nH]c4ncc(-c5ccc(N6CCN(CCC7CCN(c8ccc(N9CCC(=O)NC9=O)c(F)c8)CC7)CC6)cc5)cc34)cc2F)n1 [Example 17, 3-(tert-butyl)-N-(4-(5-(4-(4-(2-(1-(4-(2,4-dioxotetrahydropyrimidin-1(2H)-yl)-3-fluorophenyl)piperidin-4-yl)ethyl)piperazin-1-yl)phenyl)-1H-pyrazolo[3,4-b]pyridin-3-yl)-2-fluorobenzyl)-1,2,4-oxadiazole-5-carboxamide] | 5.9 |
| Cc1cc(-c2n[nH]c3ncc(-c4ccc(N5CCN(CCc6ccc(C7CCC(=O)NC7=O)c(F)c6)CC5)nc4)cc23)ccc1[C@@H](C)NC(=O)c1noc(C(C)(C)C)n1 (stereo partly drawn) [Example 199, 5-(tert-butyl)-N-((1R)-1-(4-(5-(6-(4-(4-(2,6-dioxopiperidin-3-yl)-3-fluorophenethyl)piperazin-1-yl)pyridin-3-yl)-1H-pyrazolo[3,4-b]pyridin-3-yl)-2-methylphenyl)ethyl)-1,2,4-oxadiazole-3-carboxamide] | 5.09 |
| Cc1cc(-c2n[nH]c3ncc(-c4ccc(N5CCN(CC6CCN(c7ccc(N8CCC(=O)NC8=O)cc7)CC6)CC5)cc4)cc23)c(F)cc1CNC(=O)c1noc(C(C)(C)C)n1 [Example 100, 5-(tert-butyl)-N-(4-(5-(4-(4-((1-(4-(2,4-dioxotetrahydropyrimidin-1(2H)-yl)phenyl)piperidin-4-yl)methyl)piperazin-1-yl)phenyl)-1H-pyrazolo[3,4-b]pyridin-3-yl)-5-fluoro-2-methylbenzyl)-1,2,4-oxadiazole-3-carboxamide] | 10.2 |
| Cc1cc(-c2n[nH]c3ncc(-c4ccc(N5CCN(CCc6ccc(C7CCC(=O)NC7=O)cc6)CC5)cc4)cc23)ccc1[C@@H](C)NC(=O)c1cn(C(C)(C)C)nn1 (stereo partly drawn) [Example 125, 1-(tert-butyl)-N-((1R)-1-(4-(5-(4-(4-(4-(2,6-dioxopiperidin-3-yl)phenethyl)piperazin-1-yl)phenyl)-1H-pyrazolo[3,4-b]pyridin-3-yl)-2-methylphenyl)ethyl)-1H-1,2,3-triazole-4-carboxamide] | 15.2 |
| Cc1cc(-c2n[nH]c3ncc(-c4ccc(N5CCN(CC6CCN(c7ccc(N8CCC(=O)NC8=O)c(C)c7)CC6)CC5)cn4)cc23)ccc1[C@@H](C)NC(=O)c1noc(C(C)(C)C)n1 [Example 78, (R)-5-(tert-butyl)-N-(1-(4-(5-(5-(4-((1-(4-(2,4-dioxotetrahydropyrimidin-1(2H)-yl)-3-methylphenyl)piperidin-4-yl)methyl)piperazin-1-yl)pyridin-2-yl)-1H-pyrazolo[3,4-b]pyridin-3-yl)-2-methylphenyl)ethyl)-1,2,4-oxadiazole-3-carboxamide] | 1.75 |
| Cc1cc(-c2n[nH]c3ncc(-c4ccc(N5CCN(CC6CCN(c7ccc(N8CCC(=O)NC8=O)cc7)CC6)CC5)cc4)cc23)ccc1CNC(=O)c1noc(C(C)(C)C(F)(F)F)n1 [Example 41, N-(4-(5-(4-(4-((1-(4-(2,4-dioxotetrahydropyrimidin-1(2H)-yl)phenyl)piperidin-4-yl)methyl)piperazin-1-yl)phenyl)-1H-pyrazolo[3,4-b]pyridin-3-yl)-2-methylbenzyl)-5-(1,1,1-trifluoro-2-methylpropan-2-yl)-1,2,4-oxadiazole-3-carboxamide] | 7.05 |
| CC(C)(C)c1noc(C(=O)NCc2ccc(-c3n[nH]c4ncc(-c5ccc(C6CCN(CCC7CCN(c8ccc(N9CCC(=O)NC9=O)cc8)CC7)CC6)cc5)cc34)cc2F)n1 [Example 12, 3-(tert-butyl)-N-(4-(5-(4-(1-(2-(1-(4-(2,4-dioxotetrahydropyrimidin-1(2H)-yl)phenyl)piperidin-4-yl)ethyl)piperidin-4-yl)phenyl)-1H-pyrazolo[3,4-b]pyridin-3-yl)-2-fluorobenzyl)-1,2,4-oxadiazole-5-carboxamide] | 5.17 |
| Cc1cc(-c2n[nH]c3ncc(-c4ccc(N5CCN(CCc6ccc([C@@H]7CCC(=O)NC7=O)cc6)CC5)cc4)cc23)ccc1CNC(=O)c1cn(C(C)(C)C)nn1 [Example 151, (S)-1-(tert-butyl)-N-(4-(5-(4-(4-(4-(2,6-dioxopiperidin-3-yl)phenethyl)piperazin-1-yl)phenyl)-1H-pyrazolo[3,4-b]pyridin-3-yl)-2-methylbenzyl)-1H-1,2,3-triazole-4-carboxamide] | 17.8 |
| Cc1cc(-c2n[nH]c3ncc(-c4ccc(N5CCN(CCc6ccc([C@H]7CCC(=O)NC7=O)cn6)CC5)cc4)cc23)ccc1[C@@H](C)NC(=O)c1noc(C(C)(C)C)n1 [Example 140, 5-(tert-butyl)-N—((R)-1-(4-(5-(4-(4-(2-(5-((R)-2,6-dioxopiperidin-3-yl)pyridin-2-yl)ethyl)piperazin-1-yl)phenyl)-1H-pyrazolo[3,4-b]pyridin-3-yl)-2-methylphenyl)ethyl)-1,2,4-oxadiazole-3-carboxamide] | 1.11 |
| Cc1cc(CCN2CCN(c3ccc(-c4cnc5[nH]nc(-c6ccc([C@@H](C)NC(=O)c7noc(C(C)(C)C)n7)c(C)c6F)c5c4)cc3)CC2)ncc1C1CCC(=O)NC1=O (stereo partly drawn) [Example 148, 5-(tert-butyl)-N-((1R)-1-(4-(5-(4-(4-(2-(5-(2,6-dioxopiperidin-3-yl)-4-methylpyridin-2-yl)ethyl)piperazin-1-yl)phenyl)-1H-pyrazolo[3,4-b]pyridin-3-yl)-3-fluoro-2-methylphenyl)ethyl)-1,2,4-oxadiazole-3-carboxamide] | 1.84 |
| Cc1cc(N2CCC(CN3CCN(c4ccc(-c5cnc6[nH]nc(-c7cc(CO)c([C@@H](C)NC(=O)c8nc(C(C)(C)C)no8)cc7F)c6c5)cc4)CC3)CC2)ccc1N1CCC(=O)NC1=O [Example 190, (R)-3-(tert-butyl)-N-(1-(4-(5-(4-(4-((1-(4-(2,4-dioxotetrahydropyrimidin-1(2H)-yl)-3-methylphenyl)piperidin-4-yl)methyl)piperazin-1-yl)phenyl)-1H-pyrazolo[3,4-b]pyridin-3-yl)-5-fluoro-2-(hydroxymethyl)phenyl)ethyl)-1,2,4-oxadiazole-5-carboxamide] | 6.11 |

same assay, conditions: TMD8, maximum percentage of inhibition (degradation)

| SMILES | Dmax [%] |
| --- | --- |
| Cc1cc(-c2n[nH]c3ncc(-c4ccc(N5CCN(CC6CCN(c7ccc(N8CCC(=O)NC8=O)cc7)CC6)CC5)cc4)cc23)ccc1[C@@H](C)NC(=O)c1nc(C(C)(C)C)no1 [Example 21, (R)-3-(tert-butyl)-N-(1-(4-(5-(4-(4-((1-(4-(2,4-dioxotetrahydropyrimidin-1(2H)-yl)phenyl)piperidin-4-yl)methyl)piperazin-1-yl)phenyl)-1H-pyrazolo[3,4-b]pyridin-3-yl)-2-methylphenyl)ethyl)-1,2,4-oxadiazole-5-carboxamide] | 97.5 |
| CC(C)(C)c1noc(C(=O)NCc2ccc(-c3n[nH]c4ncc(-c5ccc(N6CCN(CCC7CCN(c8ccc(N9CCC(=O)NC9=O)c(F)c8)CC7)CC6)cc5)cc34)cc2F)n1 [Example 17, 3-(tert-butyl)-N-(4-(5-(4-(4-(2-(1-(4-(2,4-dioxotetrahydropyrimidin-1(2H)-yl)-3-fluorophenyl)piperidin-4-yl)ethyl)piperazin-1-yl)phenyl)-1H-pyrazolo[3,4-b]pyridin-3-yl)-2-fluorobenzyl)-1,2,4-oxadiazole-5-carboxamide] | 96.4 |
| CC(C)(C)c1noc(C(=O)NCc2ccc(-c3n[nH]c4ncc(-c5ccc(C6CCN(CCC7CCN(c8ccc(N9CCC(=O)NC9=O)cc8)CC7)CC6)cc5)cc34)cc2F)n1 [Example 12, 3-(tert-butyl)-N-(4-(5-(4-(1-(2-(1-(4-(2,4-dioxotetrahydropyrimidin-1(2H)-yl)phenyl)piperidin-4-yl)ethyl)piperidin-4-yl)phenyl)-1H-pyrazolo[3,4-b]pyridin-3-yl)-2-fluorobenzyl)-1,2,4-oxadiazole-5-carboxamide] | 95.7 |
